Measurements from patent publication US20240287022A1 (Merck Sharp & Dohme LLC, priority 2021, published 2024).

Biological target: recombinant IL4I1 (Homo sapiens (Human), UniProt Q96RQ9)
Assay: IL4I1 Enzymatic Assay (Amplex Red/HRP coupled H2O2 detection)
Type: biochemical
Details: 1 nM IL4I1, 1 mM each Phe/Tyr/Trp, four-hour pre-incubation, 120 minutes reaction, top compound concentration of 10000 nM
In short: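 Recombinant IL4I1 (1 nM final) was pre-incubated 4 h at ambient temperature with compound in 50 mM Hepes pH 7.0, 0.005% Tween20. Reaction ran 120 min with 1 mM each Phe/Tyr/Trp, 0.05 mM Amplex Red and 1 U/mL HRP. Resorufin fluorescence (544/590 nm) was read, and EC50 fitted from ten-point 1:3 titrations (top 10000 nM) by four-parameter regression.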

recombinant IL4I1, sequence (Q96RQ9 22-567): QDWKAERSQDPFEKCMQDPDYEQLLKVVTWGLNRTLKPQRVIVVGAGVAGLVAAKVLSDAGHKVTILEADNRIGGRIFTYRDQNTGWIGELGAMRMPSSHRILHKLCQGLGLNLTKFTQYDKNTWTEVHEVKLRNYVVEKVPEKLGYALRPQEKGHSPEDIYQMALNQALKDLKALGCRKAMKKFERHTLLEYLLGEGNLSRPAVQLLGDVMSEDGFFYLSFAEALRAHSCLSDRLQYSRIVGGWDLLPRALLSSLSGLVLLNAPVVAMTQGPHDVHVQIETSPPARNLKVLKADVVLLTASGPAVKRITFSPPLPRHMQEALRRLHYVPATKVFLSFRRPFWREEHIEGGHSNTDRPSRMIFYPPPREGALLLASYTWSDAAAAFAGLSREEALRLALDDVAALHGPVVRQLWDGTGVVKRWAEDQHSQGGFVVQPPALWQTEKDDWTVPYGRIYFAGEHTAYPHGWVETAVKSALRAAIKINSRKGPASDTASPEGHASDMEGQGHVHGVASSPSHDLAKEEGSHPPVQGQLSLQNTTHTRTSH

EC50 [nM]	SMILES
11.5	CC(C)(C)n1cc(Cc2cc3ccccc3[nH]c2=O)cn1 [Example 110, 3-((1-(tert-butyl)-1H-pyrazol-4-yl)methyl)quinolin-2(1H)-one]
15.3	CC(C)(O)c1ccc(Cc2cc3cnccc3[nH]c2=O)cc1Cl [Example 184, 3-(3-Chloro-4-(2-hydroxypropan-2-yl)benzyl)-1,6-naphthyridin-2(1H)-one]
3.6	NS(=O)(=O)c1cccc(Cc2cc3cc(F)ccc3[nH]c2=O)c1 [Example 120, 3-((6-fluoro-2-oxo-1,2-dihydroquinolin-3-yl)methyl)benzenesulfonamide]
6	O=C1N(c2ccc(Cc3cc4cnccc4[nH]c3=O)cc2)CCC1(F)F [compound 62, 3-(4-(3,3-difluoro-2-oxopyrrolidin-1-yl)benzyl)-1,6-naphthyridin-2(1H)-one]
3.5	CC(=O)NCc1ccc(Cc2cc3ccccc3[nH]c2=O)cc1 [Example 124, N-(4-((2-oxo-1,2-dihydroquinolin-3-yl)methyl)benzyl)acetamide]
3.7	Cc1cc(Cc2cc3ccccc3[nH]c2=O)cnc1-c1cccc(F)c1 [Example 131, 3-((6-(3-fluorophenyl)-5-methylpyridin-3-yl)methyl)quinolin-2(1H)-one]
4.4	C[C@H]1Oc2ccc(Cc3cc4ccccc4[nH]c3=O)cc2NC1=O (single isomer, unassigned) [Example 142A, 2-methyl-6-((2-oxo-1,2-dihydroquinolin-3-yl)methyl)-2H-benzo[b][1,4]oxazin-3(4H)-one]
16.9	CC(=O)Nc1ccc(Cc2cc3ccccc3[nH]c2=O)cn1 [Example 150, N-(5-((2-oxo-1,2-dihydroquinolin-3-yl)methyl)pyridin-2-yl)acetamide]
1910	O=c1[nH]c2c(CO)cccc2cc1Cc1cccc(OC(F)(F)F)c1 [Example 177, 8-(hydroxymethyl)-3-(3-(trifluoromethoxy)benzyl)quinolin-2(1H)-one]
2.7	CC(=O)NCc1ccc(Cc2cc3ccccc3[nH]c2=O)cc1F [Example 166, N-(2-fluoro-4-((2-oxo-1,2-dihydroquinolin-3-yl)methyl)benzyl)acetamide]
4.9	CC(=O)NCc1ccc(Cc2cc3ccccc3[nH]c2=O)c(F)c1 [Example 167, N-(3-fluoro-4-((2-oxo-1,2-dihydroquinolin-3-yl)methyl)benzyl)acetamide]
13.6	O=c1[nH]c2ccccc2cc1Cc1ccc2c(c1)CCNC2 [Example 129, 3-((1,2,3,4-tetrahydroisoquinolin-6-yl)methyl)quinolin-2(1H)-one]
28.6	CS(=N)(=O)Cc1ccc(Cc2cc3ccccc3[nH]c2=O)cc1 (single isomer, unassigned) [Example 187, 3-(4-(((S or R)-methylsulfonimidoyl)methyl)benzyl)quinolin-2(1H)-one]
6.2	Cc1cc(Cc2cc3ccccc3[nH]c2=O)ccc1CNS(C)(=O)=O [Example 165, N-(2-methyl-4-((2-oxo-1,2-dihydroquinolin-3-yl)methyl)benzyl)methanesulfonamide]
2.1	O=c1[nH]c2ccccc2cc1Cc1ccc(-c2cnccn2)c(F)c1 [Example 127, 3-(3-fluoro-4-(pyrazin-2-yl)benzyl)quinolin-2(1H)-one]
6.2	O=c1[nH]c2ccccc2cc1Cc1ccc2nccnc2c1 [Example 157, 3-(quinoxalin-6-ylmethyl)quinolin-2(1H)-one]
7	O=C1COc2ccc(Cc3cc4ccccc4[nH]c3=O)c(F)c2N1 [Example 171, 5-Fluoro-6-((2-oxo-1,2-dihydroquinolin-3-yl)methyl)-2H-benzo[b][1,4]oxazin-3(4H)-one]
258	CC(C)(C#N)n1cc(Cc2cc3ccccc3[nH]c2=O)cn1 [Example 148, 2-methyl-2-(4-((2-oxo-1,2-dihydroquinolin-3-yl)methyl)-1H-pyrazol-1-yl)propanenitrile]
1.4	O=C1COc2c(F)cc(Cc3cc4ccccc4[nH]c3=O)cc2N1 [Example 176, 8-Fluoro-6-((2-oxo-1,2-dihydroquinolin-3-yl)methyl)-2H-benzo[b][1,4]oxazin-3(4H)-one]
7.7	Cn1c(=O)c(CC2CC2c2ccccc2)cc2ccccc21 (stereo not drawn) [Example 175, 1-Methyl-3-((2-phenylcyclopropyl)methyl)quinolin-2(1H)-one]

Second part, the molecule before the results:

SMILES	EC50 [nM]
CC(c1nnc(Cc2cc3ccccc3[nH]c2=O)o1)C1CC1 (racemic) [Example 19, rac-3-((5-(1-cyclopropylethyl)-1,3,4-oxadiazol-2-yl)methyl)quinolin-2(1H)-one]	125
O=c1[nH]c2ccccc2cc1Cc1nnc(-c2cn3cccnc3n2)o1 [Example 12, 3-((5-(imidazo[1,2-a]pyrimidin-2-yl)-1,3,4-oxadiazol-2-yl)methyl)quinolin-2(1H)-one]	429
NS(=O)(=O)c1ccc(Cc2cc3ccccc3[nH]c2=O)cc1Cl [Example 70, 2-chloro-4-((2-oxo-1,2-dihydroquinolin-3-yl)methyl)benzenesulfonamide]	8.9
O=c1[nH]c2ccccc2cc1Cc1nnc(-c2cnsc2)o1 [Example 30, 3-((5-(isothiazol-4-yl)-1,3,4-oxadiazol-2-yl)methyl)quinolin-2(1H)-one]	696
O=C1NCCc2cc(Cc3cc4ccccc4[nH]c3=O)ccc21 [Example 78, 3-((1-oxo-1,2,3,4-tetrahydroisoquinolin-6-yl)methyl)quinolin-2(1H)-one]	10.7
CC(C)(O)c1ccc(Cc2cc3ccccc3[nH]c2=O)cc1Cl [Example 80, 3-(3-chloro-4-(2-hydroxypropan-2-yl)benzyl)quinolin-2(1H)-one]	3.3
CCS(=O)(=O)Nc1ccc(Cc2cc3ccccc3[nH]c2=O)cn1 [Example 47, N-(5-((2-oxo-1,2-dihydroquinolin-3-yl)methyl)pyridin-2-yl)ethanesulfonamide]	10.8
CC1(C)CN(c2ccc(Cc3cc4ccccc4[nH]c3=O)cn2)C(=O)O1 [Example 52, 5,5-dimethyl-3-(5-((2-oxo-1,2-dihydroquinolin-3-yl)methyl)pyridin-2-yl)oxazolidin-2-one]	10.7
O=c1[nH]c2ccccc2cc1Cc1nnc(-c2cccc(C(F)(F)F)c2)o1 [Example 10, 3-((5-(3-(trifluoromethyl)phenyl)-1,3,4-oxadiazol-2-yl)methyl)quinolin-2(1H)-one]	7.6
CC(C)(C#N)c1ccc(Cc2cc3ccccc3[nH]c2=O)cc1 [Example 97, 2-methyl-2-(4-((2-oxo-1,2-dihydroquinolin-3-yl)methyl)phenyl)propanenitrile]	1.4
CC(O)C(C#N)c1ccc(Cc2cc3ccccc3[nH]c2=O)cc1 (single isomer, unassigned) [Example 102B, 3-hydroxy-2-(4-((2-oxo-1,2-dihydroquinolin-3-yl)methyl)phenyl)butanenitrile]	7.8
CC(=O)NCc1ncc(Cc2cc3ccccc3[nH]c2=O)cc1Cl [Example 68, N-((3-chloro-5-((2-oxo-1,2-dihydroquinolin-3-yl)methyl)pyridin-2-yl)methyl)acetamide]	12.3
O=C1NCCc2ccc(Cc3cc4ccccc4[nH]c3=O)cc21 [Example 77]	4.7
O=c1[nH]c2ncccc2cc1Cc1cccc(OC(F)(F)F)c1 [Example 106, 3-(3-(trifluoromethoxy)benzyl)-1,8-naphthyridin-2(1H)-one]	958
O=c1[nH]c2ccccc2cc1Cc1nnc(C2CCC2)o1 [Example 32, 3-((5-cyclobutyl-1,3,4-oxadiazol-2-yl)methyl)quinolin-2(1H)-one]	168
O=c1[nH]c2ccccc2cc1Cc1nnc(-c2cn3ccsc3n2)o1 [Example 13, 3-((5-(imidazo[2,1-b]thiazol-6-yl)-1,3,4-oxadiazol-2-yl)methyl)quinolin-2(1H)-one]	5.7
O=C1COc2ncc(Cc3cc4ccccc4[nH]c3=O)cc2N1 [Example 89, 7-((2-oxo-1,2-dihydroquinolin-3-yl)methyl)-1H-pyrido[2,3-b][1,4]oxazin-2(3H)-one]	4.5
O=c1[nH]c2ccccc2cc1Cc1nnc(-c2cnn[nH]2)o1 [Example 4, 3-((5-(1H-1,2,3-triazol-5-yl)-1,3,4-oxadiazol-2-yl)methyl)quinolin-2(1H)-one]	77.1
O=C1OCCN1c1ccc(Cc2cc3ccccc3[nH]c2=O)cn1 [Example 108, 3-(5-((2-oxo-1,2-dihydroquinolin-3-yl)methyl)pyridin-2-yl)oxazolidin-2-one]	1.9
CC(=O)N1Cc2ccc(Cc3cc4ccccc4[nH]c3=O)cc2C1 [Example 83, 3-((2-acetylisoindolin-5-yl)methyl)quinolin-2(1H)-one]	3.8
N#CC1(c2ccc(Cc3cc4ccccc4[nH]c3=O)cc2)CCOCC1 [Example 107, 4-(4-((2-oxo-1,2-dihydroquinolin-3-yl)methyl)phenyl)tetrahydro-2H-pyran-4-carbonitrile]	3.2
N#Cc1ccc(F)c(-c2nnc(Cc3cc4ccccc4[nH]c3=O)o2)c1 [Example 33, 4-fluoro-3-(5-((2-oxo-1,2-dihydroquinolin-3-yl)methyl)-1,3,4-oxadiazol-2-yl)benzonitrile]	65.3
COc1ccc(C#N)cc1Cc1nnc(Cc2cc3ccccc3[nH]c2=O)o1 [Example 35, 4-methoxy-3-((5-((2-oxo-1,2-dihydroquinolin-3-yl)methyl)-1,3,4-oxadiazol-2-yl)methyl)benzonitrile]	46.5
O=c1[nH]c2ccccc2cc1Cc1ccc(N2CCNCC2)cc1 [Example 59, 3-(4-(piperazin-1-yl)benzyl)quinolin-2(1H)-one]	23.6
N#Cc1n[nH]c2ccc(Cc3cc4cnccc4[nH]c3=O)cc12 [Example 95, 5-((2-oxo-1,2-dihydro-1,6-naphthyridin-3-yl)methyl)-1H-indazole-3-carbonitrile]	2.5
